Here are results for 1 molecule from patent publication EP4736876A1, “DRUG COMBINATION CONTAINING PD-L1 SMALL MOLECULE INHIBITOR AND USE THEREOF” (Beijing Maxinovel Pharmaceuticals Co., Ltd., priority 2023, dated 2025).

One data set concerns 4T1 hPD-L1 cells. The experiment in a line: Pharmacodynamic study on mouse breast cancer 4T1 hPD-L1 model, subcutaneous (Example 2, celecoxib combination). The format is in vivo, BALB/c mice. The conditions noted are these: Compound of Formula I 120 mg/kg p.o. BID, Celecoxib 60 mg/kg p.o. BID. Here is the method: Experimental animals: 100 BALB/c mice, female, 6 to 8 weeks old, weighing 18 to 21 g, purchased from: Shanghai Jihui Laboratory Animal Care Co., Ltd. (SCXK (Shanghai) 2020-0009; Certificate No.: 20220009001922).
Drugs: Compound of Formula I, manufacturer: Pharmaron (Tianjin) Process Development and Manufacturing Co., Ltd., batch number: TJ-MAX-10181-A-2; Celecoxib, manufacturer: Shanghai Yuanye Bio-Technology Co., Ltd., batch number: D11A6S2152.
Murine 4T1 hPD-L1 cells were grown adherently in vitro under culture conditions of RPMI-1640 medium supplemented with 10% heat-inactivated fetal bovine serum and 4 µg/mL Blasticidin (Beyotime/ST018-1mL), at 37°C with 5% CO2. Cells were passaged 2 to 3 times per week. When cells were in the exponential growth phase, the cells were harvested, counted, and inoculated subcutaneously on the right dorsal side of BALB/c mice.
100 µL of 1 × 10^6 4T1 hPD-L1 cell suspension was inoculated subcutaneously on the right dorsal side of BALB/c mice. On the seventh day after inoculation, stratified randomization was used to divide into 4 groups (10 mice per group) based on tumor volume and body weight. Administration began on the day of grouping. Table 5: Animal Experiment Grouping and Administration Regimen
The experimental indicators were examined to determine whether tumor growth could be inhibited, delayed, or cured. Tumors were measured three times per week using a digital vernier caliper. The tumor volume was calculated using the formula: V = 0.5a × b^2, where a and b represent the long and short diameters of the tumor, respectively. The tumor growth inhibition efficacy of compounds was calculated as: TGI (%) = [1 - (TVi - TV0) / (TVVi - TVV0)] × 100% (where TV0 represents the mean volume of the treatment group on day 0, TVV0 represents the mean volume of the control group on day 0; TVi represents the mean volume of the treatment group on day i, and TVVi represents the mean volume of the control group on day i).
If the animals' health condition continued to deteriorate, or the tumor volume exceeded 2,000 mm^3, or severe illness or pain occurred, euthanasia was required. In the following circumstances, the veterinarian was notified and euthanasia was performed: • (1) Significant emaciation with body weight loss exceeding 20%; • (2) Inability to freely access food and water; • (3) The experiment was terminated when the average tumor volume in the control group reached 2000 mm^3.
GraphPad Prism 8.0 software was used for plotting. Changes in tumor volume in mice were analyzed by Two-way ANOVA and compared with the vehicle control group using Dunnett's method, with P < 0.05 considered statistically significant.

The subject of the next data set is GL-261-luc cells. The experiment in a line: Mouse glioma GL-261-luc brain orthotopic xenograft tumor model, pharmacodynamics and survival (Example 4, temozolomide combination). The format is in vivo, C57 BL/6 mice. Particulars: Compound of Formula I 120 mg/kg PO BID, TMZ 7.5 mg/kg IP BIW. On the procedure: Experimental animals: 57 C57 BL/6 mice, female, 6 to 8 weeks old, weighing 16 to 20 g, purchased from Shanghai Jihui Laboratory Animal Care Co., Ltd.
Drugs: Compound of Formula I [drawing 5] manufacturer: Pharmaron (Tianjin) Process Development and Manufacturing Co., Ltd., batch number: TJ-MAX-10181-A-2; TMZ (Temozolomide), manufacturer: Shanghai Aladdin Biochemical Technology Co., Ltd., batch number: J2227749.
Murine GL-261-luc cells were grown adherently in vitro under culture conditions of DMEM medium supplemented with 10% heat-inactivated fetal bovine serum and 0.6 mg/mL G418 (stock concentration: 100 mg/mL), at 37°C with 5% CO2. Cells were passaged 2 to 3 times per week. When cells were in the exponential growth phase, the cells were harvested, counted, and inoculated into the right caudate nucleus of C57 BL/6 mice.
GL-261-luc cells in logarithmic growth phase were harvested at full confluence with viability guaranteed 90% or more. Mice were anesthetized via intraperitoneal injection of 41.6 mg/kg Zoletil according to body weight. 1 × 10^5/2 µL/mouse cells was orthotopically inoculated into the right caudate nucleus of each mouse, and the skin was sutured with 4/0 suture. After recovery, mice were returned to their cages. 4 days after inoculation, mice were imaged and grouped using the IVIS Lumina XR small animal imager. Fluorescence signal intensity was used for stratified randomization into 4 groups (9 mice per group). Administration began on the day of grouping, with daily weight monitoring and observation of mouse growth status. Mice were imaged twice weekly. Table 11: Animal Experiment Grouping and Administration Regimen
The experimental indicators were examined to determine whether tumor growth could be inhibited, delayed, or cured. According to the experimental design, tumor growth was monitored by imaging mice using the IVIS Lumina XR small animal imager. The tumor growth inhibition efficacy of the compounds was evaluated using TGI (Tumor Growth Inhibition), where TGI (%) = [1 - (TFtreatment-Dn - TFtreatment-D0) / (TFcontrol-Dn - TFcontrol-D0)] × 100% (where TFtreatment-D0 represents the fluorescence signal intensity of the treatment group on day 0, TFcontrol-D0 represents the fluorescence signal intensity of the control group on day 0; TFtreatment-Dn represents the fluorescence signal intensity of the treatment group on day n, and TFcontrol-Dn represents the fluorescence signal intensity of the control group on day n). The calculation formula for an increase in life span (ILS) is: ILS = (MSTTreatment - MSTControl) / MSTControl × 100% (where MSTTreatment is the median survival days for the treatment group, and MSTControl is the median survival days for the control group).
Tumor size was analyzed using the statistical software GraphPad Prism based on fluorescence signal intensity values. Two-way ANOVA was used to compare whether there were significant differences in fluorescence signal intensity between the control group and each treatment group, with p < 0.05 considered statistically significant and p < 0.01 considered highly statistically significant.

In the case of `Cc1c(/C=C/c2cc(CN[C@@](C)(CO)C(=O)O)ccc2C(F)(F)F)cccc1-c1ccccc1` [Compound of Formula I], in the data set with 4T1 hPD-L1 cells (Day 21 vs vehicle control), the “TGI (%)/Day 21” value came to 32.78%. In the data set with 4T1 hPD-L1 cells (mean, n=10, Day 21), the “Tumor Volume at the End of the Experiment/Day 21” value is recorded as 921.91 mm^3. Moreover, the “Tumor Volume at the Beginning of the Experiment/Day 0” value in the data set with 4T1 hPD-L1 cells (mean, n=10, baseline on day of grouping) is 160.33 mm^3. Moreover, the “Body Weight of Animals at the Beginning of the Experiment” value in the data set with 4T1 hPD-L1 cells (mean, baseline) is reported as 23.04 g; in the data set on GL-261-luc cells (mean, n=9, baseline), 18.89 g. The “Body Weight of Animals at the End of the Experiment” value in the data set with 4T1 hPD-L1 cells (mean, end of experiment) is recorded as 24.85 g; in the data set on GL-261-luc cells (mean, n=9), 18.29 g. Moreover, the “Relative Body Weight Change of Animals at the End of the Experiment” value with 4T1 hPD-L1 cells (mean, end of experiment) is on record as 8.01%; with GL-261-luc cells (mean, n=9), -3.08%. The “TGI (%)/Day 14” value in the data set with GL-261-luc cells (Day 14, based on fluorescence signal intensity vs vehicle control) worked out at 40.52%. The “Total Fluorescence Intensity at the End of the Experiment/Day 14” value in the data set on GL-261-luc cells (Day 14) was 1.18E + 09 p/s. Moreover, in the data set with GL-261-luc cells (baseline Day 0), the “Total Fluorescence Intensity at the Beginning of the Experiment/Day 0” value was found to be 2.75E + 07 p/s. Besides, in the data set with GL-261-luc cells (by day 14 of administration, 9 mice per group), the “mice showed > 10% body weight loss” value stood at 2 mice. Besides, the “increase in life span (ILS)” value in the data set on GL-261-luc cells (median survival vs vehicle control, end of experiment) is 20%.
